Among the data in ChEMBL document CHEMBL1151502, “New base-altered adenosine analogues: Synthesis and affinity at adenosine A1 and A2A receptors” (Bioorg Med Chem Lett, 1997) are Ki, Ratio and Displacement values, retold here.

One assay addresses Adenosine receptor A2a (Rattus norvegicus, UniProt P30543). The experiment in a line: Displacement of [3H]-CGS- 21680 from Adenosine A2 receptor of rat striatal membranes. It is filed as cell membranes, Membrane. A general note: Displacement assays read how much labelled ligand stays bound in the presence of the test substance.
Assay [1] addresses Adenosine receptors; A1 & A2a (Rattus norvegicus) (UniProt P25099+P30543). Put plainly: Selective ratio of A1 receptor to A2A receptor. Format: protein assay.
In a further assay the target is T1, Adenosine receptor A1 (Rattus norvegicus, UniProt P25099).
T1 sequence (P25099 whole entry): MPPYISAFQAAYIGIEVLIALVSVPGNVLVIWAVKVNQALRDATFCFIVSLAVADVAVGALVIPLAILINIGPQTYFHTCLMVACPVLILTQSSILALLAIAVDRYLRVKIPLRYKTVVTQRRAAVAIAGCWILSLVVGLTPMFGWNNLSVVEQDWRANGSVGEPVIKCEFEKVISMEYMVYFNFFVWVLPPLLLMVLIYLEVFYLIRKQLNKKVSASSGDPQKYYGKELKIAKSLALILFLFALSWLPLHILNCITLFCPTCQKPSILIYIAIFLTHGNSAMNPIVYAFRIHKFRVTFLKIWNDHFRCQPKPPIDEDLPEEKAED
Put plainly: Binding affinity at Adenosine A1 receptor in rat brain membranes by [3H](R)-PIA displacement. It is filed as cell membranes.

Assay [2] has as its target Adenosine receptor A2a (Rattus norvegicus) (UniProt P30543). Put plainly: Displacement of [3H]-CGS- 21680 from Adenosine A2 receptor in rat striatal membranes at 10e-4 M. The note with it: Membrane. It is filed as cell membranes.
Assay [3] has as its target Adenosine receptor A1 (Rattus norvegicus) (UniProt P25099). Put plainly: Binding affinity for Adenosine A1 receptor.
The target in assay [4] is Adenosine receptor A2a (Rattus norvegicus) (UniProt P30543). Put plainly: Displacement of [3H]-CGS- 21680 from Adenosine A2 receptor in rat striatal membranes at 10e-5 M. Format: cell membranes. The note with it: Membrane.
Sequence of Adenosine receptor A2a (Rattus norvegicus) (P30543 whole entry): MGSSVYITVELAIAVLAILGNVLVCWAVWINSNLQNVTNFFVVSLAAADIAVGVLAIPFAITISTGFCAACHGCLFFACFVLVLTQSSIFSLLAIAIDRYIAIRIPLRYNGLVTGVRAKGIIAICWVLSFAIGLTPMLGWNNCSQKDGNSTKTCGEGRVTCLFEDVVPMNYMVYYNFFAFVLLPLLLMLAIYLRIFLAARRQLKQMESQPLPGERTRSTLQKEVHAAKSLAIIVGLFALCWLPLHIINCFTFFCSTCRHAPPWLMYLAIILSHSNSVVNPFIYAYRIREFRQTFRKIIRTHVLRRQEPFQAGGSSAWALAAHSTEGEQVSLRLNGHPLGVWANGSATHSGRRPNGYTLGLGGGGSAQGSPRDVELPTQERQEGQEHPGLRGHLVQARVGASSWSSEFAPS

Sequence of Adenosine receptor A2a (P30543 whole entry): as above
Sequence of Adenosine receptors; A1 & A2a (Rattus norvegicus) (P30543 whole entry, looked up, one chain of several): as the sequence (P30543 whole entry) above

For orientation: Ki means the equilibrium dissociation constant of an inhibitor or competing ligand from its target. A higher Ki goes with lower affinity. `OC[C@H]1O[C@@H](n2cnc3c(NN4CCC(Sc5ccccc5)CC4)nc(Cl)nc32)[C@H](O)[C@@H]1O` gave a Ki on Adenosine receptor A2a of 470 nM. In assay [1], the Ratio worked out at 522.

In the case of `OC[C@H](Cc1ccccc1)Nc1nc(I)nc2c1ncn2C1O[C@H](CO)[C@@H](O)[C@H]1O` (stereo not given in full), the Ki was determined as 1360 nM at Adenosine receptor A2a and 23 nM at Adenosine receptor A1.

For `OC[C@H]1O[C@@H](n2cnc3c(NN4CCCC4)ncnc32)[C@H](O)[C@@H]1O` (stereo in doubt) [listing 1 of 2 here], the Ki at Adenosine receptor A2a came out at 2800 nM; on Adenosine receptor A1, 8 nM.

As for `OC[C@H]1O[C@@H](n2cnc3c(NN4CCCC4)ncnc32)[C@H](O)[C@@H]1O` (stereo in doubt; 3), the Ki on Adenosine receptor A2a was 2800 nM; at Adenosine receptor A1, 8 nM.

For the compound `OC[C@H]1O[C@@H](n2cnc3c(NN4CCCCC4)ncnc32)[C@H](O)[C@@H]1O`, in assay [2], the Displacement worked out at 29%. At Adenosine receptor A1, this compound yielded a Ki of 7.3 nM.

Consider `OC[C@@H](Cc1ccccc1)Nc1nc(I)nc2c1ncn2C1O[C@H](CO)[C@@H](O)[C@H]1O` (stereo not given in full), for which the Displacement in assay [2] amounted to 49%. Besides, the Ki on Adenosine receptor A1 was 989 nM.

Regarding `CC(C)C[C@H](CO)Nc1ncnc2c1ncn2C1O[C@H](CO)[C@@H](O)[C@H]1O` (stereo not given in full), the Ki on Adenosine receptor A2a was determined as 30300 nM; on Adenosine receptor A1 it was 224 nM.

Take `OC[C@H]1O[C@@H](n2cnc3c(NN4CCCC4)ncnc32)[C@H](O)[C@@H]1O` (stereo in doubt) [listing 2 of 2 here]: the Ratio in assay [1] was 350.

In turn, `OC[C@H]1OC(n2cnc3c(NN4CCOCC4)ncnc32)[C@H](O)[C@@H]1O` (stereo not given in full) had a Displacement in assay [2] of 36%. The same compound came in with a Ki on Adenosine receptor A1 of 15500 nM.

On to `OC[C@@H](Cc1ccccc1)Nc1nc(Cl)nc2c1ncn2C1O[C@H](CO)[C@@H](O)[C@H]1O` (stereo not given in full), for which the Ki at Adenosine receptor A2a amounted to 10400 nM; on Adenosine receptor A1, 452 nM.

Take `OC[C@H]1O[C@@H](n2cnc3c(NN4CCOCC4)nc(Cl)nc32)[C@H](O)[C@@H]1O`: the Ki at Adenosine receptor A2a is 1900 nM; on Adenosine receptor A1, 4.89 nM; in assay [3], 8 nM.

For the compound `OC[C@H]1O[C@@H](n2cnc3c(NN4CCCCC4)nc(Cl)nc32)[C@H](O)[C@@H]1O`, the Ki was 936 nM at Adenosine receptor A2a and 3.55 nM at Adenosine receptor A1.

On to `OC[C@H]1OC(n2cnc3c(NN4CCCCC4)nc(I)nc32)[C@H](O)[C@@H]1O` (stereo not given in full), for which the Ki at Adenosine receptor A2a amounted to 8630 nM; at Adenosine receptor A1 it was 71 nM.

With `OC[C@H]1OC(n2cnc3c(NN4CCOCC4)nc(I)nc32)[C@H](O)[C@@H]1O` (stereo not given in full), the Ki at Adenosine receptor A2a turned out to be 19400 nM; at Adenosine receptor A1 it was 113 nM.

In the case of `CC(C)C[C@@H](CO)Nc1ncnc2c1ncn2C1O[C@H](CO)[C@@H](O)[C@H]1O` (stereo not given in full), the Displacement in assay [4] is less than 10%. The compound also registered a Ki on Adenosine receptor A1 of 139 nM.

Regarding `CC(Nc1ncnc2c1ncn2[C@@H]1O[C@H](CO)[C@@H](O)[C@H]1O)[C@@H](O)c1ccccc1` (stereo not given in full), the Ki is 390 nM at Adenosine receptor A2a and 2.7 nM at Adenosine receptor A1. Also, in assay [1], the Ratio came out at 144.

For `OC[C@H](Cc1ccccc1)Nc1nc(Cl)nc2c1ncn2C1O[C@H](CO)[C@@H](O)[C@H]1O` (stereo not given in full), the Ki on Adenosine receptor A2a is 492 nM; on Adenosine receptor A1 it was 2.41 nM.
